Measured values: ChEMBL document CHEMBL1146264, “Estrogen receptor beta ligands: design and synthesis of new 2-phenyl-isoindole-1,3-diones” (Bioorg Med Chem Lett, 2007)

Experiments:
Estrogen receptor beta = Estrogen receptor beta (Homo sapiens, UniProt Q92731)
Description: Inhibition of human LBD of ERbeta

Estrogen receptor = target: T1, Estrogen receptor (Homo sapiens, UniProt P03372)
T1 sequence (P03372 whole entry): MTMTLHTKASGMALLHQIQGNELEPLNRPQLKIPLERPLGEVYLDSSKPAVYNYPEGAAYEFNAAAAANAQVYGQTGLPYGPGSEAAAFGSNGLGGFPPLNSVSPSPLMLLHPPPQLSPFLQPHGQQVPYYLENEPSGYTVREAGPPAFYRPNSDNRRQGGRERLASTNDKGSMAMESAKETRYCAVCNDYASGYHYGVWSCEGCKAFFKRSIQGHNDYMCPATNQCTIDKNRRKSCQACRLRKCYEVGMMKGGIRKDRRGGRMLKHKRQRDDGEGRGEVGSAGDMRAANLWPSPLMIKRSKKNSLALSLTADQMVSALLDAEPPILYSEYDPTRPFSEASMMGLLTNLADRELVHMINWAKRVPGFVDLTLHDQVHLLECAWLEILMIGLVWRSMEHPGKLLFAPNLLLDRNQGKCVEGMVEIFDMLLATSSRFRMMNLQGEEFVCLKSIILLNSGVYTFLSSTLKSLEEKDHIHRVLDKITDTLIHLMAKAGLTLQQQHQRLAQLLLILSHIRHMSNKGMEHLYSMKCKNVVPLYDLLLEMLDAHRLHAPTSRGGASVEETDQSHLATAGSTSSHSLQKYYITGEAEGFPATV
Description: Inhibition of human LBD of ERalpha

Homo sapiens = species on record: Homo sapiens; test: Selectivity for human LBD of ERbeta over human LBD of ERalpha

Sequence of Estrogen receptor beta (Q92731 whole entry): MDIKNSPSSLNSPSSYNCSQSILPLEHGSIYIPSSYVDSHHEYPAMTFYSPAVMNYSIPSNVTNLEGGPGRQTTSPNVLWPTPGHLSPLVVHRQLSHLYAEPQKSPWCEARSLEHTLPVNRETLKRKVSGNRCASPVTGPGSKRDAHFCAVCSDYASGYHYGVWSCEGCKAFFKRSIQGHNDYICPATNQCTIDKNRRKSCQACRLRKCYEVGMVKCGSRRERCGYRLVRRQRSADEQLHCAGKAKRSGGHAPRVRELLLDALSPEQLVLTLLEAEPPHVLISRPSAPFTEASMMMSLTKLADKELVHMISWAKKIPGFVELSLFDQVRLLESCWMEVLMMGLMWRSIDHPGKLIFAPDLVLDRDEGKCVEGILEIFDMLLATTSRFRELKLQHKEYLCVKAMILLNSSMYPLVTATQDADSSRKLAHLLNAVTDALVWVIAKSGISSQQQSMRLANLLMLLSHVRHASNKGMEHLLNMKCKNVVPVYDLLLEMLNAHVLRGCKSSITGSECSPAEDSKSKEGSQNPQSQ

Compound	IC50 (Estrogen receptor beta) [µM]	IC50 (Estrogen receptor) [µM]	Ratio IC50 (Homo sapiens)
O=C1c2ccc(O)cc2C(=O)N1c1ccccc1	> 5	2.7	
O=C1c2ccccc2C(=O)N1c1ccc(O)cc1	> 10	> 10	
O=C1c2cc(O)cc(Br)c2C(=O)N1c1ccc(O)cc1	1.62	0.036	45
O=C1c2ccc(O)cc2C(=O)N1c1ccc(O)c2ccccc12	0.56	2.64	0.2
O=C1c2ccc(O)cc2C(=O)N1c1cccc2c(O)cccc12	2.81	0.802	4
COc1ccc(N2C(=O)c3ccc(O)cc3C2=O)cc1	> 5	3.3	
COc1cc(Br)c2c(c1)C(=O)N(c1ccc(O)cc1)C2=O	> 5	> 5	
O=C1c2ccc(O)cc2C(=O)N1[C@H]1CC[C@H](O)CC1	> 5	> 5	
O=C1c2ccc(O)cc2C(=O)N1c1ccc(O)cc1[N+](=O)[O-]	0.092	0.021	4
COc1ccc(N2C(=O)c3ccc(O)cc3C2=O)c([N+](=O)[O-])c1	> 5	> 5	

Next, values leading:

IC50 (Estrogen receptor beta) [µM]	IC50 (Estrogen receptor) [µM]	Ratio IC50 (Homo sapiens)	Compound
> 5	> 5		O=C1c2ccc(O)cc2C(=O)N1c1cc(O)cc(O)c1
0.339	0.053	6	O=C1c2ccc(O)cc2C(=O)N1c1ccc(O)cc1F
2.81	0.802	4	Cc1cc(O)ccc1N1C(=O)c2ccc(O)cc2C1=O
> 5	2.47		COc1ccc(N2C(=O)c3ccc(O)cc3C2=O)c(OC)c1
1.98	0.084	24	O=C1c2ccc(O)cc2C(=O)N1c1ccc(O)cc1
> 5	2.9		O=C1c2ccc(O)cc2C(=O)N1c1cccc(O)c1
